Columns and labels:
purified calf MAP2 = target: T1, purified calf MAP2 (Bos taurus, UniProt A0A3Q1NAK9); assay: Equilibrium binding of PREG [3H] to purified calf MAP2
T1 construct: from tissue; host or cells: calf brain microtubules, heat denaturation and Sephacryl 300 gel filtration
Description: The tau and MAP2 proteins are purified according to the protocol of Fellous et al. (12) by heat denaturation of the microtubules and gel filtration on a column, Sephacryl 300® being used instead of the Ultrogel ACA 34. The tau proteins are then Further purified according to the method of Lindwall and Cole (15).
(§1) Purified calf brain tubulin (90 μg/ml), MAP2 (45 μg/ml) or tau protein (25 μg/ml) is incubated with 100 nM of PREG [^3H], with or without a 1,000-fold excess of non-radioactive PREG.
The B/U values are reported in FIG. 5 as a function of B in nM, (-∘-) representing equilibrium binding of purified calf brain MAP2, and (-∘-) the equilibrium binding of purified calf brain MAP2 associated with purified calf brain tubulin (for the experimental details, see FIG. 1).

[1] = system: purified calf brain tubulin; assay: Saturable binding of PREG [3H] to purified tubulin; conditions: tubulin 90 μg/ml, 100 nM PREG [3H] ± 1,000-fold excess PREG
Description: The calf tubulin is purified according to the protocol of Weingarten et al. (13), but the step using phosphocellulose is replaced by a cation exchange column chromatography (Fractogel, Merck) (14). The microtubules and the tubulin are prepared in L buffer, supplemented with 1 mM of GTP (buffer A).
as §1

MAP2-tubulin copolymers = MAP2-tubulin copolymers (Bos taurus, UniProt A0A3Q1NAK9); assay: Competition for PREG [3H] binding to MAP2-tubulin copolymers (RCR); set-up: species or system calf; conditions: MAP2-tubulin copolymers; PREG = 100
Chain of MAP2-tubulin copolymers (A0A3Q1NAK9 1-1867): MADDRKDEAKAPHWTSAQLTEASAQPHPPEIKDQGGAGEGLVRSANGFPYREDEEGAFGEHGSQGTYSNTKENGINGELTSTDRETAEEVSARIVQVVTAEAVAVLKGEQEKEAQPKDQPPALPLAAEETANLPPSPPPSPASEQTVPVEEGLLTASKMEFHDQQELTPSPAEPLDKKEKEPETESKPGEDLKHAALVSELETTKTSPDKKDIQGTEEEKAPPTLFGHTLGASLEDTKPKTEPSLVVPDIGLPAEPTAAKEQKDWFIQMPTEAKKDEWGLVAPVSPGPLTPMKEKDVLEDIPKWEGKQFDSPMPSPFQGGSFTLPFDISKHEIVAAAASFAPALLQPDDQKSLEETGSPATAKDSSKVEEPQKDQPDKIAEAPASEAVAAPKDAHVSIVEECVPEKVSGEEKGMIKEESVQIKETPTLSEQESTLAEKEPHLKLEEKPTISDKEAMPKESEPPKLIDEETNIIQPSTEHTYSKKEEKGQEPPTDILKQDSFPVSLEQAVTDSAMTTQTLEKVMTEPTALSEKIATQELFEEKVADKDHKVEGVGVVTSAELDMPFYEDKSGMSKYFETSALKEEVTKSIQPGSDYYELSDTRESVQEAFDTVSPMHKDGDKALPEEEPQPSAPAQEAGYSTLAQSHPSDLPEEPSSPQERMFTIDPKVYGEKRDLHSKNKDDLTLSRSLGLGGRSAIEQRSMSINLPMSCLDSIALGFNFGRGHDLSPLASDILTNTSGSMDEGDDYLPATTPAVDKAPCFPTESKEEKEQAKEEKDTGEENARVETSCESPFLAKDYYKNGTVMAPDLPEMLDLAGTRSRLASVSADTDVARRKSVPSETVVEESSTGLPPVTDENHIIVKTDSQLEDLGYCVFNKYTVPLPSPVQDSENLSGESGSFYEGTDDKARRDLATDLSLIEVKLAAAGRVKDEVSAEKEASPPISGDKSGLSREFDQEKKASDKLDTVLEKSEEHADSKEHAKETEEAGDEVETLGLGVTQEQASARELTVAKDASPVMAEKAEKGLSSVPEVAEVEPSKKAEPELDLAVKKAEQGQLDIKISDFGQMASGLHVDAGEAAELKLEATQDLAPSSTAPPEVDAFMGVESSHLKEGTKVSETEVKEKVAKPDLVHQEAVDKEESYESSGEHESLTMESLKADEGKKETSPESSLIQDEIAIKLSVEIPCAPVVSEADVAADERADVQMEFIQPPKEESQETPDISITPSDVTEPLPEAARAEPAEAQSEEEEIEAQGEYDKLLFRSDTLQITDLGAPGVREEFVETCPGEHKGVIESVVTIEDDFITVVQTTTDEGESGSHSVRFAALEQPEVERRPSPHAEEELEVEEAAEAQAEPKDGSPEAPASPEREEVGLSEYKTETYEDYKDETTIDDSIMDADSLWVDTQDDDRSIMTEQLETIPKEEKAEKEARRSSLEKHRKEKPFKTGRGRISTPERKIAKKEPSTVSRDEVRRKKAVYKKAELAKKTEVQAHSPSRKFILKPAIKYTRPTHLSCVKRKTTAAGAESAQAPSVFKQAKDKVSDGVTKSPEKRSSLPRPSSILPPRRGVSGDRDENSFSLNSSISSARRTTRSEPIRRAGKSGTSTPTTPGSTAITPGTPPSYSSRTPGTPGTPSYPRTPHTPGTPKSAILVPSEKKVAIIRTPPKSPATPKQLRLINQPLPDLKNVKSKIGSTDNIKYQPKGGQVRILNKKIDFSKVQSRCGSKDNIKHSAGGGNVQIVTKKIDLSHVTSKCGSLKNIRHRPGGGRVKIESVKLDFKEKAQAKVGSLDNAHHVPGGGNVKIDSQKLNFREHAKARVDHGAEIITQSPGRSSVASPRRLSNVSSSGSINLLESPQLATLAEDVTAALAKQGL
Description: (§2) In trials of competition between pregnenolone and different steroids for the binding studied, 0.2 ml of cytosol is incubated with 100 nM of PREG [^3H] and a 1-, 10-, 100-, and 1,000-fold excess of non-radioactive steroid.
(§3) The relative competition index was determined as ratios of the concentrations of the competitor (in the […]) versus PREG causing a reduction of 50% of the specific binding of PREG [^3H]×100 (mean±standard error, n=3).
as §1

fetal microtubules = fetal microtubules (Rattus norvegicus, UniProt P15146); assay: Competition for PREG [3H] binding to fetal microtubules (RCR); conditions: PREG = 100
Chain of fetal microtubules (P15146 whole entry): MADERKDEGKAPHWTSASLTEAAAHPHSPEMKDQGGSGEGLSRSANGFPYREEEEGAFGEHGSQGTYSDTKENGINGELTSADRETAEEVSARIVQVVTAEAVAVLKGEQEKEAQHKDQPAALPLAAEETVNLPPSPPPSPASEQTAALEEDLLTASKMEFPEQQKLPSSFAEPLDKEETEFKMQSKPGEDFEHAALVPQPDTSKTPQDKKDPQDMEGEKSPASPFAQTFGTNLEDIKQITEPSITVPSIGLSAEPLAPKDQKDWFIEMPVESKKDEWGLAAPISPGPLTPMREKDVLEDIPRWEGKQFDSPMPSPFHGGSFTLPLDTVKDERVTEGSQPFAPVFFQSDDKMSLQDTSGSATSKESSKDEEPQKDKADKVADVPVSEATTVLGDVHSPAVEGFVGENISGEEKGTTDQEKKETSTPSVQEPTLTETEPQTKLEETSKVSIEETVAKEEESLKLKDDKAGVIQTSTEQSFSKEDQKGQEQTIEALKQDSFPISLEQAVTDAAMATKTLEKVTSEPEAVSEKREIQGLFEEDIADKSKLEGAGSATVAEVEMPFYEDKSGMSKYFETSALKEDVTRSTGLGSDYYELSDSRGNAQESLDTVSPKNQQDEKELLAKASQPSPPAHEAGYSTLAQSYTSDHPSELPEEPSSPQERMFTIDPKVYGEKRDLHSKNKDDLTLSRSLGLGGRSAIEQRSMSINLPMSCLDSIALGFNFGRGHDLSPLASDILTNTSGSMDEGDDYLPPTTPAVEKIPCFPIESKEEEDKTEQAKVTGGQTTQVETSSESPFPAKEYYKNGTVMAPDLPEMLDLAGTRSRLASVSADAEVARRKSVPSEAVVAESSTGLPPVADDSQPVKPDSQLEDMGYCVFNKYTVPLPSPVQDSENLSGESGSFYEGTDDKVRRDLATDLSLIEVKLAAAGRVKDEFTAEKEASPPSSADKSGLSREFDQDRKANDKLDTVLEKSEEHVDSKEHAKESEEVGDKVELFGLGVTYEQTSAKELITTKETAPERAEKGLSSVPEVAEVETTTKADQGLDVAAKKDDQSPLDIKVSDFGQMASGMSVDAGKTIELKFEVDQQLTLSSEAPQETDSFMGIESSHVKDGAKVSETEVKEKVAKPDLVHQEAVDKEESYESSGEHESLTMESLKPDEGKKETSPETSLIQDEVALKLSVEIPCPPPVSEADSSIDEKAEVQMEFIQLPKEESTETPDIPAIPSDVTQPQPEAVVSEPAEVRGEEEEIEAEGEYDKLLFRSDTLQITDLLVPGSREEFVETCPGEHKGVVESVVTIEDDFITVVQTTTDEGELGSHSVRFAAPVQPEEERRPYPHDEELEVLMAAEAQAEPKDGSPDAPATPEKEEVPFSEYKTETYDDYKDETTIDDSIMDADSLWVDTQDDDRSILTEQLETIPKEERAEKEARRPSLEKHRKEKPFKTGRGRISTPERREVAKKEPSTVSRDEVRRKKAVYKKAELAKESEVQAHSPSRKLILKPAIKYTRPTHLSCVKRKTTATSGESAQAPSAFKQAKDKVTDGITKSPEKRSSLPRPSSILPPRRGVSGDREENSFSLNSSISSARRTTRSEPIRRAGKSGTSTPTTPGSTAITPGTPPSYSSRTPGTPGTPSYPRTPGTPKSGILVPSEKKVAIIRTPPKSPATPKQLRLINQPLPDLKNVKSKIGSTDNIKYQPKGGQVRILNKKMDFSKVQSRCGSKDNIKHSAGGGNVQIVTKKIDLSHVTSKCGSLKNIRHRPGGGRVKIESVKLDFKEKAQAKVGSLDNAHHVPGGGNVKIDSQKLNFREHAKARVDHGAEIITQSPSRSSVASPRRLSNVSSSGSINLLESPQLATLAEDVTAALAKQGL
Description: as §2
The microtubules are prepared starting from calf brain or adult or fetal rat brain according to an assembly/disassembly method, as a function of the temperature, in vitro (12).
as §3
The binding of PREG [^3H] to microtubules prepared by polymerization/depolymerization cycles was determined.

[2] = target: T2, microtubules reconstituted with purified tubulin and MAP2 (Bos taurus, UniProt A0A3Q1NAK9); assay: Kinetics of assembling of microtubules (turbidity at 345 nm); type: biochemical, calf; conditions: 500 nM steroid, 37° C., 15 min
T2 construct: from tissue; host or cells: calf brain
T2 sequence (A0A3Q1NAK9 1-1867): as the sequence (A0A3Q1NAK9 1-1867) above
Description: This assembling is measured by monitoring the increases of turbidity with a UVICON® spectrophotometer (Kontron Instruments, Montigny-le-Bretonneux, France)
The microtubules are reconstituted in vitro with purified tubulin (1 mg/ml) and MAP2 (0.05 mg/ml) in buffer A.
The increase of absorbance is measured at 345 nm, at 37° C. and recorded every 30 sec. for 15 min.
The assembling of microtubules is measured either in the absence of steroids (-⋄-); or in the presence of 500 nM of steroid: PREG (- -), progesterone (-X-), estradiol (-V-); or in the presence, at the same time, of PREG and progesterone (-∘-) or of PREG and estradiol (-Δ-) each at a concentration of 500 nM.

[3] = target: fetal rat brain cytosol binding sites of pregnenolone (Rattus norvegicus, UniProt P15146); assay: Equilibrium binding of PREG [3H] to fetal brain cytosol; conditions: mean±standard error, n=3
Chain of fetal rat brain cytosol binding sites of pregnenolone (P15146 whole entry): as the sequence (P15146 whole entry) above
Description: Fetal brains are collected, and are rinsed, after the meninges have been removed, with a homogenization buffer at 4° C. [10 mM of Tris-HCl, at pH 8.5, containing 1.5 mM of EDTA, 1 mM of dithiothreitol, 10% of glycerol, Complete®, (a mixture of protease inhibitors, Roche Molecular Biochemical); termed TEDG buffer].
The supernatant is then centrifuged at 100,000 g for 1 h at 4° C. The samples are used immediately for the trials, or are stored in liquid nitrogen until the moment of their use.
Just before the binding trial, each sample is purified with a dextran-carbon suspension, and 2 ml samples of supernatant (purified cytosol) are added to a series of tubes containing 1 to 500 nM PREG [^3H], with or without unlabeled steroid in 1,000-fold excess.
The tubes are incubated at 45° C. for 30 min. The separation of bound and free steroid was carried out on a Sephadex LH-20® (Amersham Pharmacia Biotech) mini-column.
The counting of the radioactivity in the flasks was performed in a liquid scintillation spectrometer with attenuation correction (Tri-Carb 2100 TR®, Packard).
The equilibrium binding data are analyzed with the Mac Ligand program, adapted from Munson and Rodbard (17). […]
The bound steroid is separated by gel filtration on Sephadex LH20® at 0-4° C. The binding constants are determined with the Mac Ligand program.

T1 sequence (A0A3Q1NAK9 1-1867): as the sequence (A0A3Q1NAK9 1-1867) above

Bmax (purified calf MAP2): 16 pmol/mg of MAP2
Kd (purified calf MAP2): 0.0392 µM
RCR (MAP2-tubulin copolymers): 100
RCR (fetal microtubules): 100
maximum concentration of binding sites [3]: 1.2±0.1 pmol/mg of protein
Compound: CC(=O)C1CCC2C3CC=C4CC(O)CCC4(C)C3CCC12C (stereo not shown) [Pregnenolone]
saturable binding to tubulin [1]: neither tubulin, nor tau protein, nor rabbit IgG binds PREG [^3H] in a saturable manner
effect on assembling of microtubules (absorbance at 345 nm) [2]: induces a strong increase of both the speed and the extent of the assembling of the tubulin

Source: patent publication US20030125311A1, “Compounds capable of binding with the cytoskeleton” (priority 2002, published 2003)
